The text below walks through data of patent publication US11654199B2 (BOLT BIOTHERAPEUTICS, INC., priority 2019, dated 2023).

One assay deals with T1, human TLR7 (Homo sapiens, UniProt Q9NYK1).
T1 construct: host or cells: HEK293 reporter cells
T1 sequence (Q9NYK1 27-1049): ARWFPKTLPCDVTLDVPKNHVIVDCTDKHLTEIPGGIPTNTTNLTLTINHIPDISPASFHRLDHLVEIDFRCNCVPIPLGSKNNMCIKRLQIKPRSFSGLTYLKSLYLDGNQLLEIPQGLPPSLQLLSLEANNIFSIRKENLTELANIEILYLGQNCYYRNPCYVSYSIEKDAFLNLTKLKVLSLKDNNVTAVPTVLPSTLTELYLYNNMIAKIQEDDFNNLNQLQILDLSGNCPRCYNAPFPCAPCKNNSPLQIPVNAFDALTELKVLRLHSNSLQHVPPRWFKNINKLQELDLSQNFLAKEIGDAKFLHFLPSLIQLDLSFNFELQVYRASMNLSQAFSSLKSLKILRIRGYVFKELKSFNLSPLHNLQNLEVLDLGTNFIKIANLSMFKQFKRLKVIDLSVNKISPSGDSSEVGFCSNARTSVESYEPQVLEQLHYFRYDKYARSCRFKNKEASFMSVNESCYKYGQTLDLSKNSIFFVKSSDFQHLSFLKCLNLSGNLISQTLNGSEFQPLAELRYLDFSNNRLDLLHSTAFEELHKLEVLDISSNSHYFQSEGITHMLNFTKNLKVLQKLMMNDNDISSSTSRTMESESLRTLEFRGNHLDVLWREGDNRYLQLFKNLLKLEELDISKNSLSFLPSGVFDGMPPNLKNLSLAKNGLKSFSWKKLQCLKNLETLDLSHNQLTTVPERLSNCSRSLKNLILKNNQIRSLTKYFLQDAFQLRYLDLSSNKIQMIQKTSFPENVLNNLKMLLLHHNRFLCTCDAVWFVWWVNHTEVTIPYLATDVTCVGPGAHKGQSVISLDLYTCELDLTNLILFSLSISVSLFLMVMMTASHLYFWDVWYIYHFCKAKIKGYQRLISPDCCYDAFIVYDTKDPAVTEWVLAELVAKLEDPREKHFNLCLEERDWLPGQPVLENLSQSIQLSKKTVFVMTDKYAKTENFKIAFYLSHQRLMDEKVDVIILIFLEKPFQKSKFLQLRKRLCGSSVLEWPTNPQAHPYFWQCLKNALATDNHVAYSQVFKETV
Description: HEK293 NFKB reporter assay, human TLR7. Conditions: HEK293 NFKB reporter cells expressing human TLR7; read-out: HEK293 hTLR7 EC50. It counts as cell-based. On the procedure: (§1) Each compound was synthesized, purified, and characterized by mass spectrometry and shown to have the mass indicated. Additional experimental procedures are found in the Examples. Activity against HEK293 NFKB reporter cells expressing human TLR7 or human TLR8 was measured according to Example 202.
(§2) HEK293 reporter cells expressing human TLR7 or human TLR8 were purchased from Invivogen and vendor protocols were followed for cellular propagation and experimentation. Briefly, cells were grown to 80-85% confluence at 5% CO2 in DMEM supplemented with 10% FBS, Zeocin, and Blasticidin. Cells were then seeded in 96-well flat plates at 4×10^4 cells/well with substrate containing HEK detection medium and immunostimulatory molecules. Activity was measured using a plate reader at 620-655 nm wavelength.

Another assay has as its target T2, human TLR8 (Homo sapiens, UniProt Q9NR97).
T2 construct: host or cells: HEK293 reporter cells
T2 sequence (Q9NR97 27-1041): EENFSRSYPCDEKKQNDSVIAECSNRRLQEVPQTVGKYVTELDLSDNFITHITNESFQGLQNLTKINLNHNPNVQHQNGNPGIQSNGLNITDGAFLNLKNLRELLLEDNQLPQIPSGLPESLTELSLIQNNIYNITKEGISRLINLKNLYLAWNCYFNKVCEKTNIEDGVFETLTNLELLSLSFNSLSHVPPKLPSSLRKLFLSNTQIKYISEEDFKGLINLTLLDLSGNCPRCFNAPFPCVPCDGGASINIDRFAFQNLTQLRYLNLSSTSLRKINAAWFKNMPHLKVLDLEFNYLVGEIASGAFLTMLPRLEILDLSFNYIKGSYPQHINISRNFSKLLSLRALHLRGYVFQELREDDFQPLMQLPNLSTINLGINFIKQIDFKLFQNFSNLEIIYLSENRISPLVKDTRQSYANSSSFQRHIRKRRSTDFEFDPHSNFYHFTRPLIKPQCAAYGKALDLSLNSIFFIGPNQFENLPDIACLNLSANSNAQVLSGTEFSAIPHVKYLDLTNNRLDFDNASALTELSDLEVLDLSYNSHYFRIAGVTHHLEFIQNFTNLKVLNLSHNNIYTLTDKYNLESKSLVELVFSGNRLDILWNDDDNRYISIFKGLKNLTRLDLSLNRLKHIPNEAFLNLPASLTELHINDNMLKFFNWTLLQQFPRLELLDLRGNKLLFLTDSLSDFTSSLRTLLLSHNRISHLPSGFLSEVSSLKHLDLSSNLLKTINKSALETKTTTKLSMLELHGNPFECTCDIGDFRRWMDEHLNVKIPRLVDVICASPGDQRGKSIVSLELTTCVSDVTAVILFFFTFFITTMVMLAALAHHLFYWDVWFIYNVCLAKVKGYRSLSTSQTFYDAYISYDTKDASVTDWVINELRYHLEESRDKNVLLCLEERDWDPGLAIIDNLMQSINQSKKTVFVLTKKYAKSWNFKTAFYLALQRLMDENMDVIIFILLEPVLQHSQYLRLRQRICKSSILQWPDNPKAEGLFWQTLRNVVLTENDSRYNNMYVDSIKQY
Put plainly: HEK293 NFKB reporter assay, human TLR8. Conditions: HEK293 NFKB reporter cells expressing human TLR8; read-out: HEK293 hTLR8 EC50. The format is cell-based. The protocol:
as §1, §2
For orientation: Reporter assays use an easily measured gene product as a stand-in for the process of interest.

By EC50 is commonly meant the concentration that produces a half-maximal response. As to `CCCN(CCC)C(=O)C1=Cc2sc(CN)cc2N=C(N)C1` [TAZ-84], the EC50 at human TLR7 was 4.95 µM; at human TLR8, 1370 nM.
On the same counts, the results for `CCCN(CCC)C(=O)C1=Cc2sc(C(=O)NCCCN)cc2N=C(N)C1` [TAZ-32] are greater than 9 µM and greater than 9000 nM.
On the same counts, the results for `CCCN(OCC)C(=O)C1=Cc2sc(CN3CC[C@H]4NC[C@H]4C3)cc2N=C(N)C1` [TAZ-227] are 4.39 µM and 2290 nM.
For the compound `CCCN(OCC)C(=O)C1=Cc2sc(CC3CN(C(=O)OC(C)(C)C)C3)cc2N=C(N)C1` [TAZ-184], the EC50 worked out at 0.922 µM on human TLR7 and 930 nM at human TLR8.
Taken in the same sequence, the figures for `CCCN(CC1CCC1)C(=O)C1=Cc2sc(CCCCCN)cc2N=C(N)C1` [TAZ-126] were 0.95 µM and 633 nM.
Taken in the same sequence, the figures for `CCCN(CCc1ccc(OC)cc1)C(=O)C1=Cc2sccc2N=C(N)C1` [TAZ-83] were 3.52 µM and 3370 nM.
Taken in the same sequence, the figures for `CCCN(OCC)C(=O)C1=Cc2sc(CC3CCNC3)cc2N=C(N)C1` (stereo not drawn) [TAZ-236] were 2.22 µM and 423 nM.
Turning to `CCCN(C[C@H]1C[C@@H](CNC(=O)OC(C)(C)C)C1)C(=O)C1=Cc2sccc2N=C(N)C1` [TAZ-48], the results for the concentration giving a half-maximal response (EC50) on human TLR7 and at human TLR8 were greater than 9 µM and greater than 9000 nM, respectively.
Taken in the same sequence, the figures for `CCCN(OCC)C(=O)C1=Cc2sc(CCC3CNC3)cc2N=C(N)C1` [TAZ-195] were 6.6 µM and 953 nM.
`CCCN(Cc1ccc(CCN)cc1)C(=O)C1=Cc2sccc2N=C(N)C1` [TAZ-58]: the EC50 is greater than 9 µM at human TLR7 and 1300 nM on human TLR8.
With `CCCN(CC1CC1)C(=O)C1=Cc2sc(CCCCCN)cc2N=C(N)C1` [TAZ-124], the EC50 at human TLR7 worked out at 1.73 µM; at human TLR8, 1940 nM.
Taken in the same sequence, the figures for `CCCN(CCCNC(=O)OC1CCC1)C(=O)C1=Cc2sc(CC3CCN(C(=O)OC(C)(C)C)CC3)cc2N=C(N)C1` [TAZ-177] were 0.882 µM and 3400 nM.
Turning to `CCCN(OCC)C(=O)C1=Cc2sc(CN3CC4(C3)CN(c3ccc(C)cc3)C4)cc2N=C(N)C1` [TAZ-219], the concentration giving a half-maximal response (EC50) on human TLR7 was 3.2 µM; at human TLR8, 847 nM.
Taken in the same sequence, the figures for `CCCN(CCCNC(=O)OC1CCC1)C(=O)C1=Cc2sc(C#CC3CNC3)cc2N=C(N)C1` [TAZ-192] were 0.824 µM and 3480 nM.
Taken in the same sequence, the figures for `CCCN(CCCNC(=O)C(C)(C)C)C(=O)C1=Cc2sc(CCCCCNC(=O)OC(C)(C)C)cc2N=C(N)C1` [TAZ-141] were 0.38 µM and 3580 nM.
On the same counts, the results for `CCCN(OCC)C(=O)C1=Cc2sc(C#CCCCNC(=O)OC(C)(C)C)cc2N=C(N)C1` [TAZ-72] are 3.15 µM and 2830 nM.
Regarding `CCCN(Cc1ccc(CNC(=O)OC(C)(C)C)cn1)C(=O)C1=Cc2sccc2N=C(N)C1` [TAZ-42], the results for the EC50 on human TLR7 and on human TLR8 were greater than 9 µM and greater than 9000 nM, respectively.
On the same counts, the results for `CCCN(OCCNC(=O)CC(C)(C)C)C(=O)C1=Cc2sc(CCCCCN)cc2N=C(N)C1` [TAZ-149] are 0.534 µM and 2240 nM.
In the case of `CCCN(OCC)C(=O)C1=Cc2sc(CN3CCC[C@@H](C(=O)OC)C3)cc2N=C(N)C1` [TAZ-223], the concentration for a half-maximal effect (EC50) on human TLR7 came to 3.8 µM; on human TLR8, 3140 nM.
On the same counts, the results for `CCCN(Cc1ccc(CN(C)C)cc1)C(=O)C1=Cc2sc(CCCCCN)cc2N=C(N)C1` [TAZ-82] are 5 µM and 2870 nM.
As for `CCCN(OCC)C(=O)C1=Cc2sc(CN3CCNC(=O)C3)cc2N=C(N)C1` [TAZ-224], the 50% effective concentration (EC50) at human TLR7 worked out at 3.41 µM; on human TLR8 it was 2720 nM.
Taken in the same sequence, the figures for `CCCN(NCC)C(=O)C1=Cc2sccc2N=C(N)C1` [TAZ-85] were greater than 9 µM and 4030 nM.
On the same counts, the results for `CCCN(CCCNC(=O)OC1CCC1)C(=O)C1=Cc2sc(-c3cn[nH]c3)cc2N=C(N)C1` [TAZ-172] are 0.153 µM and 3700 nM.
On the same counts, the results for `CCCN(CC12CC(CN(C)C)(C1)C2)C(=O)C1=Cc2sccc2N=C(N)C1` [TAZ-47] are greater than 9 µM and greater than 9000 nM.
